Experimental data from ChEMBL document CHEMBL1201862, “PubChem BioAssay data set” (2004).
Counter-ions that a name gives are not always drawn.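 Step 1: Grow cells in 96-well plates. Step 2: Expose to compound for 48 hours at 5 concentrations. Step 3: Interpolate endpoints linearly; if unreached, use highest concentration. GI50 is the concentration that inhibits growth by half.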 The source made the active and inactive calls. No stated cut-off is given here; in the data, active = GI50 up to about 1.1 µM and inactive = higher. Residues, ends and D or L forms follow the SMILES beside them. *: point of attachment. Boc = CC(C)(C)OC(=O)*

Key:
Test in all cases: growth of human tumour cells (NCI), 48 h
[1] = tested on: OVCAR-5
[2] = tested on: TK-10
[3] = tested on: OVCAR-4
[4] = tested on: OVCAR-3
[5] = tested on: HL-60
[6] = tested on: SK-MEL-2
[7] = tested on: UACC-62
[8] = tested on: ACHN
[9] = tested on: CCRF-CEM
[10] = tested on: RXF 393
[11] = tested on: 786-0
[12] = tested on: Malme-3M
[13] = tested on: A498
[14] = tested on: SK-MEL-5
[15] = tested on: PC-3
[16] = tested on: OVCAR-8
[17] = tested on: NCI/ADR-RES
[18] = tested on: SNB-75
[19] = tested on: M14

| Structure (SMILES) | GI50 [1] | GI50 [2] | GI50 [3] | GI50 [4] | GI50 [5] | GI50 [6] | GI50 [7] | GI50 [8] | GI50 [9] | GI50 [10] | GI50 [11] | GI50 [12] | GI50 [13] | GI50 [14] | GI50 [15] | GI50 [16] | GI50 [17] | GI50 [18] | GI50 [19] |
| --- | --- | --- | --- | --- | --- | --- | --- | --- | --- | --- | --- | --- | --- | --- | --- | --- | --- | --- | --- |
| O=C1NC(=S)N/C1=C\c1ccc(Br)s1 | > 100 µM (inactive) | 52 µM (inactive) | 53.1 µM (inactive) | 71.8 µM (inactive) | 0.861 µM (active) | 99.8 µM (inactive) | 28 µM (inactive) | > 100 µM (inactive) | 25.3 µM (inactive) | > 100 µM (inactive) | > 100 µM (inactive) | > 100 µM (inactive) | 34.3 µM (inactive) | 39.8 µM (inactive) | 94.2 µM (inactive) |  |  |  |  |
| S=C(NCc1ccccc1)c1nc[nH]c1C(=S)NCc1ccccc1 | 6.98 µM (inactive) | 10.5 µM (inactive) | 6.65 µM (inactive) | 6 µM (inactive) | 7.69 µM (inactive) | 9.08 µM (inactive) | 3.2 µM (inactive) | 2.69 µM (inactive) | 2.96 µM (inactive) | 11.1 µM (inactive) | 5.96 µM (inactive) | 11 µM (inactive) |  |  | 7.82 µM (inactive) | 4.49 µM (inactive) | 3.41 µM (inactive) | 6.12 µM (inactive) | 5.55 µM (inactive) |
| Cc1ccc(NCC(=O)N2CC(=O)Nc3ccccc32)c(C)c1 | > 100 µM (inactive) | > 100 µM (inactive) | > 100 µM (inactive) | > 100 µM (inactive) | > 100 µM (inactive) | > 100 µM (inactive) | 95.1 µM (inactive) | > 100 µM (inactive) | > 100 µM (inactive) | > 100 µM (inactive) | > 100 µM (inactive) | > 100 µM (inactive) |  | > 100 µM (inactive) |  | > 100 µM (inactive) |  | > 100 µM (inactive) | > 100 µM (inactive) |
| CC1(C)[C@H]2CC[C@]1(C)[C@H](OC(=O)NNC(=O)O[C@@H]1C[C@@H]3CC[C@@]1(C)C3(C)C)C2 | 17.5 µM (inactive) | 20.6 µM (inactive) | 11.4 µM (inactive) | 11.9 µM (inactive) | 7.01 µM (inactive) | 16.8 µM (inactive) | 17.4 µM (inactive) | 18.7 µM (inactive) | 20.3 µM (inactive) | 10.6 µM (inactive) | 17.8 µM (inactive) | 16.1 µM (inactive) | 16.3 µM (inactive) | 12.6 µM (inactive) |  |  |  | 13.6 µM (inactive) | 15.5 µM (inactive) |
| COc1ccc(C(=O)O/N=C2/CCCCC2CN(C)C)cc1 (centres undefined) | > 100 µM (inactive) | > 100 µM (inactive) | > 100 µM (inactive) | > 100 µM (inactive) | > 100 µM (inactive) | > 100 µM (inactive) | > 100 µM (inactive) | > 100 µM (inactive) | > 100 µM (inactive) | > 100 µM (inactive) | > 100 µM (inactive) | > 100 µM (inactive) | > 100 µM (inactive) | > 100 µM (inactive) |  | > 100 µM (inactive) |  | > 100 µM (inactive) | > 100 µM (inactive) |
| N#CC1(c2ccccc2)CCN(C2(c3ccccc3)CCCCC2)CC1 | > 100 µM (inactive) | > 100 µM (inactive) | > 100 µM (inactive) | > 100 µM (inactive) | > 100 µM (inactive) | > 100 µM (inactive) | > 100 µM (inactive) | > 100 µM (inactive) | > 100 µM (inactive) | > 100 µM (inactive) | 94.2 µM (inactive) | 8.83 µM (inactive) |  | > 100 µM (inactive) | > 100 µM (inactive) | > 100 µM (inactive) | > 100 µM (inactive) | > 100 µM (inactive) | > 100 µM (inactive) |
| CCOC(=O)c1nnsc1N/N=C\c1ccc([N+](=O)[O-])cc1 | > 100 µM (inactive) | > 100 µM (inactive) | > 100 µM (inactive) | > 100 µM (inactive) |  | > 100 µM (inactive) | > 100 µM (inactive) | > 100 µM (inactive) | > 100 µM (inactive) | > 100 µM (inactive) | 80 µM (inactive) | > 100 µM (inactive) |  | > 100 µM (inactive) | > 100 µM (inactive) | 54.7 µM (inactive) | > 100 µM (inactive) | 44.5 µM (inactive) | > 100 µM (inactive) |
| COc1ccc([S+]([O-])Cc2cc(OC)c(OC)c(OC)c2)cc1 (centres undefined) | 42.9 µM (inactive) | > 100 µM (inactive) | > 100 µM (inactive) | 57.8 µM (inactive) | > 10 µM (inactive) | 38.1 µM (inactive) | 42.4 µM (inactive) | > 100 µM (inactive) | 41.3 µM (inactive) | 29.2 µM (inactive) | > 100 µM (inactive) | 58.3 µM (inactive) |  | 29.6 µM (inactive) | > 100 µM (inactive) | 62.5 µM (inactive) | 40.7 µM (inactive) | 45.4 µM (inactive) | 35.2 µM (inactive) |
| Nc1nc(O)nc2snnc12 | > 100 µM (inactive) | > 22.4 µM (inactive) | > 53.7 µM (inactive) | > 100 µM (inactive) | 2.79 µM (inactive) | 1.75 µM (inactive) | 7.26 µM (inactive) | > 100 µM (inactive) | 14.9 µM (inactive) | 4.66 µM (inactive) | 6.38 µM (inactive) | 8.65 µM (inactive) |  | > 74.3 µM (inactive) | > 100 µM (inactive) | 5.71 µM (inactive) | 32.6 µM (inactive) | 5.28 µM (inactive) | 7.35 µM (inactive) |
| CCN1CCCC(Nc2cc(C)nc(NC(=N)Nc3ccc(Cl)c(Cl)c3)n2)C1 (centres undefined) | 2.74 µM (inactive) | 1.69 µM (inactive) | 1.85 µM (inactive) | 1.67 µM (inactive) | 0.216 µM (active) | 2.04 µM (inactive) | 1.85 µM (inactive) | 2.32 µM (inactive) | 0.63 µM (active) |  | 1.54 µM (inactive) | 2.39 µM (inactive) |  | 2.08 µM (inactive) |  |  | 2.78 µM (inactive) | 1.25 µM (inactive) | 0.254 µM (active) |
| COC(=O)C(Cc1c[nH]c2ccccc12)NC(=O)C(Cc1c[nH]c2ccccc12)NC(=O)C(Cc1c[nH]c2ccccc12)NC(=O)C(Cc1c[nH]c2ccccc12)NC(=O)C(Cc1c[nH]c2ccccc12)NC(=O)C(Cc1c[nH]c2ccccc12)NC(=O)OC(C)(C)C (centres undefined) (Boc-WWWWWW-OMe; configuration not given here) | > 100 µM (inactive) | 31.2 µM (inactive) | > 100 µM (inactive) | > 100 µM (inactive) | > 100 µM (inactive) | 61.7 µM (inactive) | 32 µM (inactive) | > 100 µM (inactive) | > 100 µM (inactive) |  | > 100 µM (inactive) | 69.5 µM (inactive) |  | 19.3 µM (inactive) | 52.5 µM (inactive) | 92.9 µM (inactive) |  | 46 µM (inactive) | > 10 µM (inactive) |
| CN[C@@H](C)[C@@H](O)c1ccccc1 [PSEUDOEPHEDRINE HYDROCHLORIDE] | > 100 µM (inactive) | > 100 µM (inactive) | > 100 µM (inactive) | > 10 µM (inactive) | > 100 µM (inactive) | > 100 µM (inactive) |  | > 100 µM (inactive) | > 10 µM (inactive) |  | > 100 µM (inactive) | > 100 µM (inactive) |  | > 100 µM (inactive) | > 100 µM (inactive) | > 100 µM (inactive) | > 100 µM (inactive) | > 100 µM (inactive) | > 100 µM (inactive) |
